Reference: BindingDB's records for doi:10.1021/acs.biochem.5b00135 (Northwestern University, 2015)
pIC50, pKi: −log10 of the molar value.

Molecular target: T1, Nitric oxide synthase, inducible (Mus musculus, UniProt P29477)
T1 sequence (P29477 whole entry): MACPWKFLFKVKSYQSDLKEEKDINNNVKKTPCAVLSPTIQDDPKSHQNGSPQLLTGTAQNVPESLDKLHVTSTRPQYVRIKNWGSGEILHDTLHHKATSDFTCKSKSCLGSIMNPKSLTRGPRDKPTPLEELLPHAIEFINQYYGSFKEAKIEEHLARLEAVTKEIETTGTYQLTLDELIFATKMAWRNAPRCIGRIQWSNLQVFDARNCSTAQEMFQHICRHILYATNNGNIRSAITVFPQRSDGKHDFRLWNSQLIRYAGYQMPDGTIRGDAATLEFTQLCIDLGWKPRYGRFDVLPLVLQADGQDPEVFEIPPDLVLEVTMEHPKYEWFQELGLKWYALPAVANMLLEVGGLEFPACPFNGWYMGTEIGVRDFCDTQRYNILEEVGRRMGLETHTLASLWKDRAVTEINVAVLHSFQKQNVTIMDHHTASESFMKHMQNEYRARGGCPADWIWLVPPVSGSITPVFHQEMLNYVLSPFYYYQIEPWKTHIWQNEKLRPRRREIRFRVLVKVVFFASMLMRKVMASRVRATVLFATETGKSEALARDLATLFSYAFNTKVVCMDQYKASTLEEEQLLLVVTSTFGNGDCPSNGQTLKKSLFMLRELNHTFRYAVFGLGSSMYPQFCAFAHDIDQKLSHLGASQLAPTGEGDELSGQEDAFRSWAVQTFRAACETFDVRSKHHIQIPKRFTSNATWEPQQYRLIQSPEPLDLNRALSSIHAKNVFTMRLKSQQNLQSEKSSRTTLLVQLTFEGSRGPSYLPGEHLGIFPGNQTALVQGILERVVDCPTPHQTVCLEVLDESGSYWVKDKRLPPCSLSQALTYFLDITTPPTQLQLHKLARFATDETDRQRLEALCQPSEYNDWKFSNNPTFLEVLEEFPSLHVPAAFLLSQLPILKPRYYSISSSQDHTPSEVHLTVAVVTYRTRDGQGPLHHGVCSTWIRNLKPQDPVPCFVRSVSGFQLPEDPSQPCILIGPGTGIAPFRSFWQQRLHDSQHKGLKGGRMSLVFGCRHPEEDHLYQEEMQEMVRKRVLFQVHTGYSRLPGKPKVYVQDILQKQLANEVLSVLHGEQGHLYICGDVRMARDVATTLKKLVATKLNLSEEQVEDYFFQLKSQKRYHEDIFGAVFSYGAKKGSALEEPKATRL
Test: Hemoglobin Assay
Conditions: pH 7.4
Method: The final volume was adjusted to 600 μL with 100 mM Hepes buffer (pH 7.4).

SMILES | pIC50 | pKi
CCCC(=N)NCCC[C@H](N)C(=O)O [(S)-2-Amino-5-butyrimidamidopentanoic acid (9)] | 4.72 | 5.06
N=CNCCC[C@H](N)C(=O)O [(S)-2-Amino-5-formimidamidopentanoic acid (7)] | 6.40 | 6.74

Continued, values first:

pIC50 | pKi | SMILES
3.86 | 4.19 | CC(C)C(=N)NCCC[C@H](N)C(=O)O [(S)-2-Amino-5-isobutyrimidamidopentanoic acid (10)]
3.49 | 3.84 | CC(C)(C)C(=N)NCCC[C@H](N)C(=O)O [(S)-2-Amino-5-pivalimidamidopentanoic acid (12)]
4.79 | 5.14 | CCC(=N)NCCC[C@H](N)C(=O)O [(S)-2-Amino-5-propionimidamidopentanoic acid (8)]
5.09 |  | CC(=N)NCCC[C@H](N)C(=O)O [(S)-5-Acetimidamido-2-aminopentanoic acid (4, L-NIO)]
